In patent US20230303561A1, “PYRIMIDINONE DERIVATIVE, PREPARATION METHOD THEREOF AND USE THEREOF IN RESISTING MYCOBACTERIUM TUBERCULOSIS INFECTION” (INSTITUTE OF MEDICINAL BIOTECHNOLOGY, CHINESE ACADEMY OF …, priority 2020, published 2023):
≈ marks a conversion by molar mass, not a printed value.

Test system: MTB H37Rv
Experiment: Bacteriostasis experiment: MIC in 96-well plate, two-fold dilution method
Type: cell-based, Mycobacterium tuberculosis
Settings: for MIC: Mycobacterium tuberculosis, ATCC 27294 / H37Rv, 240 h, MTB H37Rv (ATCC 27294), 7H9 medium, 37° C., about 10 days, read-out: Inhibitory activity against Mycobacterium tuberculosis, MIC, MTB H37Rv; for anti-mycobacterium tuberculosis MIC compared with the positive control drug INH: MTB H37Rv, statement on Table 1 data

Row | SMILES | MIC [µg/mL] | anti-mycobacterium tuberculosis MIC compared with the positive control drug INH
1 | CCCSc1nc2c(c(=O)[nH]1)C(c1ccc(C)cc1)CC(=O)N2 (stereo not drawn) [LSL-9-37, 2-propylmercapto-5-(4-methylphenyl)-5,6-dihydropyrido[2,3-d]pyrimidin-4,7(3H,8H)-dione] | 2 (≈ 6.07 µM) | 
2 | CCCSc1nc2c(c(=O)[nH]1)C(c1ccc(C(F)(F)F)cc1)CC(=O)N2 (stereo not drawn) [LSL-9-38, 2-propylmercapto-5-(4-trifluoromethylphenyl)-5,6-dihydropyrido[2,3-d]pyrimidin-4,7(3H,8H)-dione] | 16 (≈ 41.7 µM) | 
3 | CCCSc1nc2c(c(=O)[nH]1)C(c1ccc(OCC)cc1)CC(=O)N2 (stereo not drawn) [LSL-9-39, 2-propylmercapto-5-(4-ethoxyphenyl)-5,6-dihydropyrido[2,3-d]pyrimidin-4,7(3H,8H)-dione] | 0.5 (≈ 1.39 µM) | equivalent to that of the positive control drug INH
4 | CCCSc1nc2c(c(=O)[nH]1)C(c1ccc(OC)c([N+](=O)[O-])c1)CC(=O)N2 (stereo not drawn) [LSL-9-40, 2-propylmercapto-5-(4-methoxy-3-nitrophenyl)-5,6-dihydropyrido[2,3-d]pyrimidin-4,7(3H,8H)-dione] | 4 (≈ 10.2 µM) | 
5 | CCCSc1nc2c(c(=O)[nH]1)C(c1ccc(OC)cc1[N+](=O)[O-])CC(=O)N2 (stereo not drawn) [LSL-9-41, 2-propylmercapto-5-(4-methoxy-2-nitrophenyl)-5,6-dihydropyrido[2,3-d]pyrimidin-4,7(3H,8H)-dione] | 0.125 (≈ 0.32 µM) | equivalent to that of the positive control drug INH
6 | CCCSc1nc2c(c(=O)[nH]1)C(c1ccc(Cl)c(N)c1)CC(=O)N2 (stereo not drawn) [LSL-9-43, 2-propylmercapto-5-(3-amino-4-chlorophenyl)-5,6-dihydropyrido[2,3-d]pyrimidin-4,7(3H,8H)-dione] | 4 (≈ 11 µM) | 
7 | CCCSc1nc2c(c(=O)[nH]1)C(c1ccc(N)cc1)CC(=O)N2 (stereo not drawn) [LSL-9-44, 2-propylmercapto-5-(4-aminophenyl)-5,6-dihydropyrido[2,3-d]pyrimidin-4,7(3H,8H)-dione] | 16 (≈ 48.4 µM) | 
8 | CCCSc1nc2c(c(=O)[nH]1)C(c1cccc(OC)c1)CC(=O)N2 (stereo not drawn) [LSL-9-47, 2-propylmercapto-5-(3-methoxyphenyl)-5,6-dihydropyrido[2,3-d]pyrimidin-4,7(3H,8H)-dione] | 4 (≈ 11.6 µM) | 
9 | CCCSc1nc2c(c(=O)[nH]1)C(c1ccccc1OC)CC(=O)N2 (stereo not drawn) [LSL-9-48, 2-propylmercapto-5-(2-methoxyphenyl)-5,6-dihydropyrido[2,3-d]pyrimidin-4,7(3H,8H)-dione] | 16 (≈ 46.3 µM) | 
10 | CCCSc1nc2c(c(=O)[nH]1)C(c1cccc(O)c1)CC(=O)N2 (stereo not drawn) [LSL-9-49, 2-propylmercapto-5-(3-hydroxyphenyl)-5,6-dihydropyrido[2,3-d]pyrimidin-4,7(3H,8H)-dione] | 16 (≈ 48.3 µM) | 
11 | CCCSc1nc2c(c(=O)[nH]1)C(c1ccc(C#N)cc1)CC(=O)N2 (stereo not drawn) [LSL-10-01, 2-propylmercapto-5-(4-cyanophenyl)-5,6-dihydropyrido[2,3-d]pyrimidin-4,7(3H,8H)-dione] | 16 (≈ 47 µM) | 
12 | CCCSc1nc2c(c(=O)[nH]1)C(c1cccc(C#N)c1)CC(=O)N2 (stereo not drawn) [LSL-10-02, 2-propylmercapto-5-(3-cyanophenyl)-5,6-dihydropyrido[2,3-d]pyrimidin-4,7(3H,8H)-dione] | 6 (≈ 17.6 µM) | 
13 | CCCSc1nc2c(c(=O)[nH]1)C(c1ccccc1[N+](=O)[O-])CC(=O)N2 (stereo not drawn) [LSL-10-03, 2-propylmercapto-5-(2-nitrophenyl)-5,6-dihydropyrido[2,3-d]pyrimidin-4,7(3H,8H)-dione] | 8 (≈ 22.2 µM) | 
14 | CCCSc1nc2c(c(=O)[nH]1)C(c1ccc(O)c([N+](=O)[O-])c1)CC(=O)N2 (stereo not drawn) [LSL-10-04, 2-propylmercapto-5-(4-hydroxy-3-nitrophenyl)-5,6-dihydropyrido[2,3-d]pyrimidin-4,7(3H,8H)-dione] | 0.625 (≈ 1.66 µM) | equivalent to that of the positive control drug INH
15 | CCCSc1nc2c(c(=O)[nH]1)C(c1ccccc1)CC(=O)N2 (stereo not drawn) [LSL-10-05, 2-propylmercapto-5-phenyl-5,6-dihydropyrido[2,3-d]pyrimidin-4,7(3H,8H)-dione] | 8 (≈ 25.4 µM) | 
